# Measurements as given in the supplement of paper PMC10307832.
# Columns and labels:
# Test in all cases: relative viability (nuclei count vs DMSO), 5 days (fraction); higher = more cells survive
# [1] = compound: CCN1C(=O)C2=CC(=C(N=C2N(C1=O)C3CC3)N)C(=O)N + C[C@@H](Oc1cc(-c2cnn(C3CCNCC3)c2)cnc1N)c1c(Cl)ccc(F)c1Cl [Crizotinib] (partner 1 µM)
# Procedure, shortened: (§1)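 A single step with final 0.05% Triton X-100, 1% formaldehyde and 1 ug/ml Hoechst fixed the cells and stained nuclei 5 days after treatment. Lung cancer cell lines in 1536-well plates had been treated by pin tool the day after seeding with one drug alone or a fixed anchor-drug dose plus five library-drug doses (not always all listed) in √10 steps, and nuclei were counted on 4× images. Relative viability is the ratio of nuclei in treated wells to nuclei in vehicle wells, taken as the median of duplicate plates.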
# [2] = compound: CCN1C(=O)C2=CC(=C(N=C2N(C1=O)C3CC3)N)C(=O)N + CC(=O)Nc1cccc(-n2c(=O)n(C3CC3)c(=O)c3c(Nc4ccc(I)cc4F)n(C)c(=O)c(C)c32)c1 [Trametinib] (partner 0.02 µM)
# Procedure, shortened: as §1
# [3] = compound: CCN1C(=O)C2=CC(=C(N=C2N(C1=O)C3CC3)N)C(=O)N + CS(=O)(=O)N1CCN(Cc2cc3nc(-c4cccc5[nH]ncc45)nc(N4CCOCC4)c3s2)CC1 [Pictilisib] (partner 1 µM)
# Procedure, shortened: as §1
# [4] = compound: CCN1C(=O)C2=CC(=C(N=C2N(C1=O)C3CC3)N)C(=O)N + NC(=O)Nc1cc(-c2cccc(F)c2)sc1C(=O)N[C@H]1CCCNC1 [AZD7762] (partner 0.2 µM)
# Procedure, shortened: as §1
# [5] = compound: CCN1C(=O)C2=CC(=C(N=C2N(C1=O)C3CC3)N)C(=O)N + O=C(c1cc(Cc2n[nH]c(=O)c3ccccc23)ccc1F)N1CCN(C(=O)C2CC2)CC1 [Olaparib] (partner 8 µM)
# Procedure, shortened: as §1
Cell Line,relative viability ([1]; first compound 0.253 µM),relative viability ([1]; first compound 0.8 µM),relative viability ([1]; first compound 2.53 µM),relative viability ([1]; first compound 8 µM),relative viability ([2]; first compound 0.253 µM),relative viability ([2]; first compound 0.8 µM),relative viability ([2]; first compound 2.53 µM),relative viability ([2]; first compound 8 µM),relative viability ([3]; first compound 0.253 µM),relative viability ([3]; first compound 0.8 µM),relative viability ([3]; first compound 2.53 µM),relative viability ([3]; first compound 8 µM),relative viability ([4]; first compound 0.253 µM),relative viability ([4]; first compound 0.8 µM),relative viability ([4]; first compound 2.53 µM),relative viability ([4]; first compound 8 µM),relative viability ([5]; first compound 0.253 µM),relative viability ([5]; first compound 0.8 µM),relative viability ([5]; first compound 2.53 µM),relative viability ([5]; first compound 8 µM)
NCI-H2126,1.03,1.02,1.01,0.977,0.574,0.583,0.56,0.554,0.509,0.511,0.507,0.474,1.02,0.967,0.941,0.958,0.876,0.932,0.887,0.939
NCI-H2085,0.861,0.985,0.84,1.01,0.588,0.538,0.52,0.428,0.418,0.397,0.444,0.42,0.989,0.915,0.921,1.04,0.835,0.815,0.72,0.814
BEN,0.713,0.865,0.903,1.07,0.915,0.937,1.11,1.05,0.539,0.522,0.62,0.519,0.789,0.568,0.864,0.689,1.16,1.09,1.01,1.08
LCLC-103H,1.02,1.07,1.02,1.02,0.741,0.663,0.705,0.662,0.57,0.581,0.501,0.582,0.76,0.83,0.768,0.838,0.739,0.754,0.74,0.772
PC-3 [JPC-3],1.04,0.953,0.914,0.94,0.686,–,0.686,0.736,0.729,0.696,0.69,0.737,0.813,–,0.966,0.748,1.13,–,1.18,1.21
NCI-H1915,0.895,0.921,0.851,0.911,0.297,0.294,0.305,0.337,0.953,0.843,0.953,0.904,0.722,0.7,0.712,0.594,0.271,0.284,0.261,0.286
